Several values for one entry are separate records, joined by “and”; a condition that tells them apart may be missing. Identical values can stand only once.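 Cells were grown in 96-well plates and exposed to each compound for 48 hours at five concentrations; endpoints were interpolated linearly between bracketing concentrations, or set to the highest concentration if not reached. TGI: total growth inhibition.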
Tests used:
Experiment in all cases: NCI tumour cell line growth inhibition, 48 h
[1] = tested on: SK-MEL-2 melanoma
[2] = tested on: CAKI-1 renal
[3] = tested on: HOP-92 NSCLC
[4] = tested on: A498 renal
[5] = tested on: LOX IMVI melanoma
[6] = tested on: M14 melanoma
[7] = tested on: NCI-H460 lung
[8] = tested on: NCI/ADR-RES ovarian
[9] = tested on: MOLT-4 leukemia
[10] = tested on: HCT-116 colon

Compound | TGI [1] | TGI [2] | TGI [3] | TGI [4] | TGI [5] | TGI [6] | TGI [7] | TGI [8] | TGI [9] | TGI [10]
CC1=NNC(=O)[C@H]2[C@H]1CCC1[C@@H]2CC[C@]2(C)[C@@H](O)CC[C@@H]12 (stereo not given in full) | > 100 µM | > 100 µM | > 100 µM | > 100 µM | > 100 µM | > 100 µM | > 100 µM | > 100 µM | > 100 µM | > 100 µM
O=C(Nc1ccc(Cl)c(C(F)(F)F)c1)C(=O)c1c(O)c2ccccc2oc1=O | > 100 µM | > 100 µM | > 100 µM | > 100 µM | > 100 µM | > 100 µM | > 100 µM | > 100 µM | > 100 µM | > 100 µM
CC1(CCCCO)C=CC(S(=O)(=O)c2ccccc2)CC1 (stereo not given) | 23.1 µM | 23.9 µM | 7.04 µM | 21.7 µM | 3.65 µM | 12.2 µM | 13.2 µM | 12.5 µM | 14.9 µM | 12.6 µM
N#Cc1c(N)nc2n[nH]c(N)c2c1-c1ccccc1 | 12.8 µM | 19.4 µM | 8.01 µM | 5.77 µM | 19 µM | 37.5 µM | > 53.2 µM | 48.5 µM | 32.4 µM | 46.1 µM
Nc1nc2c(c(=O)[nH]1)NC(CCNc1ccc(C(=O)O)cc1)CN2 (stereo not given) | > 100 µM | > 100 µM | > 100 µM | > 100 µM | > 100 µM | > 100 µM | > 100 µM | > 100 µM | > 100 µM | > 100 µM
O=S(=O)(/N=C(\NO)Nc1ccc(Cl)cc1)c1cc(S(=O)(=O)c2ccccc2)cs1 | 45.9 µM | 46.7 µM | 31.5 µM | 28.4 µM | 39 µM | 29.2 µM | 40.7 µM | > 100 µM | 39.8 µM | 26.4 µM
COc1ccc2c(C(=O)c3c(C)n(CCN4CCOCC4)c4ccccc34)cccc2c1 | 55.9 µM | > 100 µM | > 100 µM | > 100 µM | 45.4 µM | 87.7 µM | > 100 µM | 55.9 µM | > 100 µM | > 100 µM
Cc1cc(OC(=O)Nc2ccc(Cl)cc2)ccc1C(=S)Nc1ccccc1 | > 100 µM | > 100 µM | > 100 µM | > 100 µM | > 100 µM | > 100 µM | > 100 µM | > 100 µM | > 100 µM | > 100 µM
COC1(c2ccccc2)NC(=S)NN=C1c1ccccc1 (stereo not given) | 75.8 µM | > 100 µM | > 100 µM | > 100 µM | > 100 µM | > 100 µM | 71.6 µM | 37.7 µM | > 100 µM | > 100 µM
CCN(CC)Cc1ccc(Nc2c3ccccc3nc3ccccc23)cc1 | 7.27 µM | 4.66 µM | 11.9 µM | 9.41 µM | 3.3 µM | 3.15 µM | 3.05 µM | 22.4 µM | > 100 µM | 6.99 µM
COc1cccc(Nc2nc(NS(=O)(=O)c3cc(C)c(Cl)cc3S)n[nH]2)c1 | > 100 µM | > 100 µM | > 100 µM | > 100 µM | > 100 µM | > 100 µM | > 100 µM | > 100 µM | > 100 µM | > 100 µM
COc1cccc(N2C(=O)C3CC(CC(C)(C)C)c4c([nH]c5ccccc45)C3C2=O)c1 (stereo not given) | > 10 µM | > 10 µM | > 10 µM | > 10 µM | > 10 µM | > 10 µM | > 10 µM | > 10 µM | > 10 µM | > 10 µM
CCCCC1Cc2cc(OC)ccc2-c2n1c1cc(OC)ccc1[n+]2C (stereo not given) (tested in a mixture with another compound) | 13 µM | > 100 µM | 7.02 µM | 83.2 µM | 14.3 µM | 25.7 µM | 18.1 µM | > 100 µM | > 51.6 µM | > 39.9 µM
O=c1c2ccccc2n2cnc3ccc(NCCNCCO)c1c32 | 8.8 µM | 9.46 µM | 13.1 µM | 6.96 µM | 2.8 µM | 8.07 µM | 7.58 µM | 16.5 µM | 10.3 µM | 8.29 µM
COc1cccc(-c2[nH]c3cc4c(cc3c(=O)c2C(=O)O)OCO4)c1 | > 100 µM | > 100 µM | > 100 µM | 91.6 µM | > 100 µM | > 100 µM | > 100 µM | 47.3 µM | > 100 µM | > 100 µM
O=C1c2ccccc2-n2c1nc1ccc(Cl)cc1c2=O | > 100 µM | > 100 µM | > 100 µM | > 100 µM | > 100 µM | > 100 µM | > 100 µM | > 100 µM | > 100 µM | > 100 µM
C=C1C(=O)O[C@@H]2[C@H]1C[C@H](I)[C@@]1(C)CC[C@H](O1)[C@](C)(I)CCCC(C)[C@@H]2O (stereo not given in full) | 28.6 µM | 4.19 µM | 3.52 µM | 28.1 µM | 2.59 µM | 19.4 µM | 28.6 µM | 9.84 µM | > 23.4 µM | 8.34 µM

Compound | TGI [1] | TGI [2] | TGI [3] | TGI [4] | TGI [5] | TGI [6] | TGI [7] | TGI [8] | TGI [9] | TGI [10]
C=C(Cl)C(Cl)(CBr)CCC(Br)C(C)(C)Cl (stereo not given) | 4.17 µM | 2.36 µM and 1.99 µM and 2.1 µM | 3.5 µM and 2.72 µM and 4.84 µM | 4.03 µM and 4.02 µM and 6.05 µM | 12.4 µM and 29.7 µM and 33.6 µM | 42.2 µM and 33.5 µM and > 74 µM | 3.66 µM and 2.93 µM and 5.82 µM | 7.18 µM and 4.48 µM and 33.2 µM | 59.8 µM and 33.4 µM and 54.3 µM | 1.77 µM and 1.61 µM and 5.75 µM
N#C[C@H](C(=O)c1ccccc1F)c1nc2ccccc2[nH]1 | > 100 µM | > 100 µM | > 100 µM | > 100 µM | > 100 µM | > 100 µM | > 100 µM | > 100 µM | > 100 µM | > 100 µM
Cn1c(SCc2c[nH]c3ccccc23)nnc1-c1ccc(Cl)cc1Cl | 36.2 µM | > 100 µM | 53 µM | 86.3 µM | 20 µM | 38.1 µM | 26.3 µM | 27.3 µM | 27.5 µM | 93 µM
CCCCCC(/C=C/[C@@H]1[C@@H](C(O)CCCCCC(=O)OC)C(=O)C[C@H]1O[Si](C)(C)C(C)(C)C)OCOCCOC (stereo not given in full) | 32.4 µM | 32.2 µM | 46.2 µM | 42.7 µM | 14.5 µM | 37.1 µM | > 100 µM | 51.8 µM | 4.87 µM | 16.1 µM
CC(=O)O[C@H]1C[C@@H](OC(C)=O)[C@@](C)(O)[C@@H]2[C@@H](OC(C)=O)[C@@]3(O)[C@H](/C=C(/CCl)[C@H]4O[C@H]4[C@@H](OC(C)=O)[C@@]12C)OC(=O)[C@@H]3C | > 25 µM | > 25 µM | > 25 µM | > 25 µM | > 25 µM | > 25 µM | > 25 µM | > 25 µM | > 25 µM | > 25 µM
Brc1ccc(-c2nc(-c3ccc(Br)cc3)n(-c3ccccc3)n2)cc1 | > 100 µM | > 100 µM | > 100 µM | > 100 µM | > 100 µM | > 100 µM | > 100 µM | > 100 µM | > 100 µM | > 100 µM
Cc1cc2c3c(c1)CCCN3CCC2 | > 10 µM | > 10 µM | > 10 µM | > 10 µM | > 10 µM | > 10 µM | > 10 µM | > 10 µM | > 10 µM | > 10 µM
CN(CCCNC(=O)c1c2ccc3ccccc3c2nn1C)CCCNC(=O)c1c2ccc3ccccc3c2nn1C | 13.3 µM | 15.3 µM | 12.7 µM | 15.7 µM | 9.18 µM | 3.99 µM | 18.4 µM | 29.3 µM | 24 µM | 28 µM
C=CC1(O)CCCC=C1COCc1ccccc1 (stereo not given) | > 100 µM | > 100 µM | > 100 µM | > 100 µM | 40.7 µM | > 100 µM | > 100 µM | > 100 µM | 66.7 µM | > 100 µM
CC(=O)N1c2ccccc2[C@H]2CCc3c([nH]c4ccccc34)[C@H]21 | 74.1 µM | 64.4 µM | 33.5 µM | 36.2 µM | 31.8 µM | 30.9 µM | 23.3 µM | > 100 µM | 53.1 µM | 11.4 µM
O=C1c2ccccc2/C=C\C(c2ccccc2)=N/N1c1ccccc1Cl | > 100 µM | 54.5 µM | 78.4 µM | 71.9 µM | > 100 µM | 51.2 µM | > 100 µM | 63.5 µM | 77.1 µM | > 100 µM
Clc1ccc(Cn2cc(/C=N/n3cnnc3)c3ccccc32)cc1 | 82.9 µM | > 100 µM | 68.3 µM | 4.34 µM | > 100 µM | > 100 µM | 75 µM | > 100 µM | > 100 µM | > 100 µM
O=C(O)c1ccccc1CC(Cc1ccccc1)C(=O)O (stereo not given) | > 100 µM | > 100 µM | > 100 µM | > 100 µM | > 100 µM | > 100 µM | > 100 µM | > 100 µM | > 100 µM | > 100 µM
CC(=O)OC1CC[C@@]2(C)C(=CC[C@@H]3[C@@H]2CC[C@]2(C)C(OC(C)=O)[C@H](n4ccnc4)C[C@@H]32)C1 (stereo not given in full) | 34.2 µM | > 100 µM | > 100 µM | > 100 µM | 37.7 µM | 31.2 µM | 33.4 µM | > 100 µM | 30.3 µM | 31.2 µM
CC(N)=O.[Cl][Pt][Cl].[NH-]c1ccn(C2OC(CO)C(O)C2O)c(=O)n1 (stereo not given) | > 100 µM | > 100 µM | > 100 µM | > 100 µM | > 100 µM | > 100 µM | > 100 µM | > 100 µM | > 100 µM | > 100 µM
Nc1ncc(Sc2ccccc2C(=O)O)s1 | > 100 µM | > 100 µM | > 100 µM | > 100 µM | > 100 µM | > 100 µM | > 100 µM | > 100 µM | > 100 µM | > 100 µM

— PubChem BioAssay (NCI)
